Assay results taken from patent US20120270935A1, “FORMULATIONS” (priority 2009, published 2012).

Key:
P. acnes NCTC 737 [1] = assay: Disc diffusion assay (DDA); assay type: cell-based, Propionibacterium acnes; details: 200 μg compound per disc; DMSO
Description: (§1) The first test micro-organism used was Propionibacterium acnes NCTC 737. This is a propionibacterial strain and is the type strain of the […]; it is fully susceptible to antibiotics.
(§2) The propionibacteria were cultured and maintained on Wilkins-Chalgren Anaerobe Medium (agar and broth) at pH 6.0; all cultures were incubated anaerobically at 37° C. for 72 hours.
This is an internationally recognised standard method for qualitatively assessing the antimicrobial activity of a compound.
A sterile paper disc was impregnated with a sample of the test compound in a suitable solvent and 30 minutes allowed for the solvents to evaporate (where possible). The disc was then placed on an agar plate onto which the test micro-organism had been inoculated. The plate was then incubated under the conditions described above, following which it was examined visually for signs of microbial growth. If the test compound had antimicrobial activity, a circular zone of no growth would be obtained around the disc. The diameter of this zone of “inhibition” was measured using a ProtoCOL™ automated zone sizer (Synbiosis, Cambridge, UK). In general, a greater diameter and/or area of the zone of inhibition indicates a greater antimicrobial activity in the relevant test compound, although other factors such as test compound mobility through the agar gel may also influence the result.
(§3) DDA assays, as described above, were carried out using as the test formulation the gel prepared in Example 2B above. Also tested was the Example 2B gel minus the Klucel™ thickener, which was also subjected to MIC and MBC assays. For the DDAs, which were performed in triplicate, 100 μl of the relevant formulation was loaded onto each disc, and zones of inhibition were recorded after 3 days' anaerobic incubation at 37° C. The MIC and MBC tests were performed in duplicate and the results recorded after 3 days and 7 days respectively, post-subculture onto drug-free medium. […]

P. acnes NCTC 737 [2] = assay: Minimum inhibitory concentration (MIC) assay, broth microtitre; assay type: cell-based, Propionibacterium acnes; details: compound in DMSO; triplicate
Description: as §1, §2
This is a standard international method for quantitatively assessing the antimicrobial activity of a compound in a liquid medium. The method used a sterile 96-well microtitre plate, capable of holding about 200 μl of liquid per well. The wells contained liquid culture medium and ranges of decreasing concentrations of the relevant test compound in doubling dilutions (eg 1000, 500, 250, 125 . . . μg/ml, etc. down to 0.49 μg/ml). The culture medium was as described above.
The wells were inoculated with a liquid suspension of freshly grown micro-organism and incubated under the conditions described above. After incubation, the microtitre plate was examined visually (with the aid of a light box) for cloudiness in each well, which would indicate microbial growth. The MIC value was recorded as the lowest concentration of test compound required to inhibit microbial growth, ie the lowest concentration for which the liquid in the well remained clear.
The assays included both negative (culture medium with no micro-organisms) and positive (culture medium plus diluting solvent plus micro-organism) controls.
as §3

P. acnes NCTC 737 [3] = assay: Minimum bactericidal concentration (MBC) assay; assay type: cell-based, Propionibacterium acnes; details: compound in DMSO; triplicate
Description: as §1, §2
(§4) This assay, normally carried out after an MIC assay, determines the minimum concentration of a compound that is lethal to the micro-organism being tested.
These samples were then individually sub-cultured on antibiotic-free agar medium, under the incubation conditions described above. Following incubation they were examined visually for microbial growth.
DDA assays, as described above, were carried out using as the test formulation the gel prepared in Example 2B above. Also tested was the Example 2B gel minus the Klucel™ thickener, which was also subjected to MIC and MBC assays. For the DDAs, which were performed in triplicate, 100 μl of the relevant formulation was loaded onto each disc, and zones of inhibition were recorded after 3 days' anaerobic incubation at 37° C. The MIC and MBC tests were performed in duplicate and the results recorded after 3 days and 7 days respectively, post-subculture onto drug-free medium.
The compounds copper (II) usnate (Just for Today Ltd), sodium usnate (Yick-Vic Chemicals) and usnic acid (Sigma-Aldrich) were tested against P. acnes NCTC 737, using MIC, MBC and DDA assays as described above. For copper usnate and usnic acid, supplemented DDA assays were also carried out. DMSO was used as the solvent for all three test compounds. For the DDAs, 200 μg of the relevant test compound was loaded onto each disc. The MIC and MBC assays were conducted in triplicate, as were the DDAs for copper usnate.

S. aureus ATCC 29213 [4] = assay: MIC assay; assay type: cell-based, Staphylococcus aureus; details: Mueller-Hinton broth pH 7.0
From the text: (§5) (a) staphylococci. The Staphylococcus aureus strain used was ATCC 29213. S. aureus and other staphylococci are common causes of a wide range of skin, skin structure and wound infections; S. aureus is also known to exacerbate eczema. The ATCC 29213 strain is known to be susceptible to beta-lactam antibiotics such as methicillin. The Staphylococcus epidermidis strain used was NCTC 11047. Staph. epidermidis forms part of the resident flora of skin and is an opportunistic pathogen which can cause biofilms to grow for instance on plastic surgical implants such as catheters. Unless otherwise stated, the staphylococci were cultured and maintained on Mueller-Hinton Medium (agar and broth) at pH 7.2; cultures were incubated aerobically at 37° C. for 19-20 hours, at pH 7 (±0.2). (b) C. striatum NCTC 764. Corynebacterium striatum is closely related to organisms (aerobic diphtheroids of the genus Corynebacterium) that cause body odour. It was cultured and maintained on Mueller-Hinton medium (agar and broth). All cultures were incubated aerobically at 37° C. for 72 hours, at pH 7 (±0.2). (c) streptococci. The strains tested were S. mutans ATCC 25175 and S. pyogenes ATCC 12344. S. mutans is a Gram-positive, microaerophilic bacterium which plays a significant role in dental caries and in infective endocarditis. […]
(§6) This is a standard international method for quantitatively assessing the antimicrobial activity of a compound in a liquid medium. […]
(§7) The wells were inoculated with a liquid suspension of freshly grown micro-organism and incubated under the conditions described above. […] The MIC value was recorded as the lowest concentration of test compound required to inhibit microbial growth, ie the lowest concentration for which the liquid in the well remained clear. […]
(§8) Example 8 was repeated (except for the supplemented DDA assays), using S. aureus ATCC 29213 as the test organism. […] In the DDA assays, 200 μg is of each compound was loaded onto each disc: the culture medium was Mueller-Hinton agar at pH 7.0, and results were recorded after overnight incubation at 37° C. in air. […]

S. aureus ATCC 29213 [5] = assay: MBC assay; assay type: cell-based, Staphylococcus aureus; details: Mueller-Hinton broth pH 7.0
From the text: as §5, with “endocarditis. Streptococcus pyogenes is associated with skin, soft tissue, burn and wound infections. S. mutans was cultured and maintained on Wilkins-Chalgren Anaerobe medium+1 g/L glucose (agar and broth); it was incubated in air at 37° C. for 48 hours, at pH 7 (±0.2) with 5% carbon dioxide. S. pyogenes was cultured and maintained on Mueller-Hinton medium (broth and agar) and was incubated under the same conditions as S. mutans.” for “endocarditis.”
as §8

S. aureus ATCC 29213 [6] = assay: Disc diffusion assay (DDA); assay type: cell-based, Staphylococcus aureus; details: 200 μg per disc; Mueller-Hinton agar pH 7.0; overnight at 37° C. in air
From the text: as §5, with “endocarditis. Streptococcus pyogenes is associated with skin, soft tissue, burn and wound infections.” for “endocarditis.”
(§9) A sterile paper disc was impregnated with a sample of the test compound in a suitable solvent and 30 minutes allowed for the solvents to evaporate (where possible). […] The diameter of this zone of “inhibition” was measured using a ProtoCOL™ automated zone sizer (Synbiosis, Cambridge, UK). […]
as §8

C. striatum NCTC 764 [7] = assay: MIC assay; assay type: cell-based, Corynebacterium striatum; details: triplicate
From the text: as §5, with “endocarditis. Streptococcus pyogenes is associated with skin, soft tissue, burn and wound infections. S. mutans was cultured and maintained on Wilkins-Chalgren Anaerobe medium+1 g/L glucose (agar and broth); it was incubated in air at 37° C. for 48 hours, at pH 7 (±0.2) with 5% carbon dioxide.” for “endocarditis.”
as §6, §7

C. striatum NCTC 764 [8] = assay: MBC assay; assay type: cell-based, Corynebacterium striatum; details: triplicate
From the text: (a) staphylococci. The Staphylococcus aureus strain used was ATCC 29213. S. aureus and other staphylococci are common causes of a wide range of skin, skin structure and wound infections; S. aureus is also known to exacerbate eczema. The ATCC 29213 strain is known to be susceptible to beta-lactam antibiotics such as methicillin. The Staphylococcus epidermidis strain used was NCTC 11047. Staph. epidermidis forms part of the resident flora of skin and is an opportunistic pathogen which can cause biofilms to grow for instance on plastic surgical implants such as catheters. Unless otherwise stated, the staphylococci were cultured and maintained on Mueller-Hinton Medium (agar and broth) at pH 7.2; cultures were incubated aerobically at 37° C. for 19-20 hours, at pH 7 (±0.2). (b) C. striatum NCTC 764. Corynebacterium striatum is closely related to organisms (aerobic diphtheroids of the genus Corynebacterium) that cause body odour. It was cultured and maintained on Mueller-Hinton medium (agar and broth). All cultures were incubated aerobically at 37° C. for 72 hours, at pH 7 (±0.2). (c) streptococci. The strains tested were S. mutans ATCC 25175 and S. pyogenes ATCC 12344. S. mutans is a Gram-positive, microaerophilic bacterium which plays a significant role in dental caries and in infective endocarditis. Streptococcus pyogenes is associated with skin, soft tissue, burn and wound infections. S. mutans was cultured and maintained on Wilkins-Chalgren Anaerobe medium+1 g/L glucose (agar and broth); it was incubated in air at 37° C. for 48 hours, at pH 7 (±0.2) with 5% carbon dioxide. S. pyogenes was cultured and maintained on Mueller-Hinton medium (broth and agar) and was incubated under the same conditions as S. mutans.
as §4
These samples were then individually sub-cultured on antibiotic-free agar medium, under the incubation conditions described above. Following incubation they were examined visually for microbial growth. […]

C. striatum NCTC 764 [9] = assay: Disc diffusion assay (DDA); assay type: cell-based, Corynebacterium striatum; details: 200 μg per disc; single plates
From the text: as §5, with “streptococci.” for “streptococci. The strains tested were S. mutans ATCC 25175 and S. pyogenes ATCC 12344. S. mutans is a Gram-positive, microaerophilic bacterium which plays a significant role in dental caries and in infective endocarditis.”
as §9

In the case of CC(=O)C1=C([O-])C=C2Oc3c(C(C)=O)c(O)c(C)c(O)c3[C@]2(C)C1=O.[Na+] [Sodium usnate, sodium usnate], the “DDA zone diameter, unsupplemented medium” value (P. acnes NCTC 737 [1]) is reported as 57.9 mm, the MIC (P. acnes NCTC 737 [2]) is reported as 0.49 mg/L and the MBC (P. acnes NCTC 737 [3]) is reported as 0.98 mg/L. For the same molecule, the MIC (S. aureus ATCC 29213 [4]) was 7.8 mg/L, the MBC (S. aureus ATCC 29213 [5]) was 250 mg/L and the DDA zone diameter (S. aureus ATCC 29213 [6]) was 15.0 mm. The MIC (C. striatum NCTC 764 [7]) was 3.9 mg/L, the MBC (C. striatum NCTC 764 [8]) was 125 mg/L and the DDA zone diameter (C. striatum NCTC 764 [9]) was 20.0 mm.
